Data set [1] in a line: transchelation experiments with ^67Ga^3+ labelled chelators, DTPA as competing ligand. It counts as physicochemical. Conditions: ^67Ga labelled, after 10 days. The procedure: (§1) The chelators defined by compounds 8 and 15 in FIG. 1 and as described, supra, were tested in transchelation experiments, using ^111In^3+, and ^67Ga^3+, using the known chelator DTPA as a competing ligand. Labelling was carried out using standard methods.
Labelled TAME-HexA was 94% intact after 10 days, and 99% of the labelled TAME-HexB was stable after the same period of time.

The nature of data set [2]: transchelation experiments with ^111In^3+ labelled chelators, DTPA as competing ligand. It is filed as physicochemical. Conditions: ^111In labelled, after 24 hours. The procedure: as §1

Consider `O=C(O)CN(CC(=O)O)CC(CN(CC(=O)O)CC(=O)O)(CN(CC(=O)O)CC(=O)O)CN(Cc1ccccc1)Cc1ccccc1` [Compound 15, 2-[Bis(carboxymethylamino)methyl]-2-[(dibenzylamino)methyl]-propylene-1,3-dinitrilotetraacetic acid], for which the “labelled chelator intact / stable” value in data set [1] was 99%. In addition, in data set [2], the labelled material intact entry is given as “about 10%”.

Values taken from patent US20100324319A1, “Tame based chelators and uses thereof” (priority 2003, published 2010).
